From patent US6583132B1, “Oxidant scavengers” (Duke University, priority 1993, dated 2003)
Where two headings read alike, the source gives them in different places.

Tests used:
rat cortical cells = experiment: Neurotoxicity (LDH release) in cortical cell culture; assay type: cell-based
Description: Tissue culture: Mixed neuronal and glial cultures were prepared from embryonic day-18 rat cerebral cortices (Sprague-Dawley, Zivic Miller). Briefly, the cerebral cortices were dissected and enzymatically dissociated by incubation in Ca^++-, Mg^++-free Hank's balanced salt solution (HBSS) supplemented with 10 mM HEPES and 0.25% trypsin for 20 min. at 37° C. The tissue was rinsed and dispersed into single cell suspension by gentle passage through a fire polished Pasteur pipette. The cell suspension was centrifuged and resuspended in Minimum Essential Media (MEM), containing Earle's salts supplemented with 3 g/L glucose, 5% horse serum and 5% fetal bovine serum (growth media). The cells were plated in poly-D-lysine-coated multi-well plates: 12-well plates for aconitase measurement, and 24 well plates for toxicity experiments. Cells were maintained at 37° C. in a humidified incubator with 5% CO2/95% air in growth media. Media was not replaced so as to reduce glial overgrowth and neuronal loss. Mature cells (14-17 days in vitro) were used for all experiments.
Cell treatment: The growth media was replaced with MEM supplemented with 25 mM glucose (MEM-g). For both neurotoxicity studies and aconitase measurement, cells were incubated in the designated treatment for the indicated length of time at 37° C. Unless otherwise specified, antagonists or SOD-mimetics were added 15 min. prior to agonists. For measurement of neurotoxicity, cells were incubated with treatments for 18 hr at 37° C. in MEM-g. To access the ability of antagonists to inhibit acute NMDA toxicity or rescue cells from an ongoing NMDA insult, an alternate paradigm of NMDA treatment was used in addition to the one describe above. In this paradigm, growth media was replaced with HBSS^+ (Ca^++-, Mg^++-free Hank's Balanced Salt Solution supplemented with 2 mM CaCl2, 1 mM NaHCO3, 10 mM HEPES and 5 μM glycine), cells were treated with vehicle or 100 μM NMDA for 15 min. after which HBSS^+ was replaced with MEM-g and cells were returned to the incubator for 18 additional hrs. Antagonsists or SOD-mimetics were added to the cells 15 min. before NMDA exposure or 15, 30 or 60 min. following final media replacement. For determination of Ca^++-dependence, cells were incubated in HBSS^+ with no added Ca^++. When kainate (KA) was used as an agonist, 100 μM D-APV was routinely included to block secondary NMDA receptor activation. Catalase (100 U/ml) was always included when xanthine plus xanthine oxidase (X+XO) was used as a treatment to rule out the contribution of hydrogen peroxide.
Neurotoxicity studies: Neurotoxicity was determined by the measurement of LDH released in the supernatant media as previously described (Patel et al, Toxicol. Appl. Pharmacol. 115:124 (1991) and Neurotoxicology 14:35 (1992)). LDH was measured by the method of Vassault, Lactate dehydrogenase. In: Methods of Enzymatic Analysis, Bergmeyer HU (ed), Verlag Chemie, Weinheim, pp. 118-126 (1983). Additionally, cell death was confirmed with ethidium-1 homodimer (EthD-1). Briefly, the cells were washed with HBSS, loaded with 20 μM EthD-1 for 30 min,. rinsed and viewed through fluorescence optics. The number of dead cells labeled with EthD-1 were counted in 4-6 randomly selected fields, the numbers averaged to give an estimate of cell death and the experiment was repeated 3 times.

J774 macrophages [1] = experiment: Mitochondrial respiration (MTT) in J774 macrophages; assay type: cell-based
Description: (§1) Cell culture: J774 macrophages were cultured in DMEM medium, supplemented with L-glutamine (3.5 mmol/L) and 10% fetal calf serum. Cells were cultured in 96-well plates (200 μl medium/well) until confluence. To induce the inducible isoform of nitric oxide synthase (iNOS), fresh culture medium containing E. coli LPS (011:B4, 10 μg/ml) alone or in combination with murine γ-interferon (γ-IFN, 10 U/ml) was added in the presence or absence of the NOS inhibitor, the SOD mimetic of the combination of the two compounds for 24 h. Moreover, cells were exposed to the NO donor compounds S-nitroso-N-acetyl-DL-penicillamine (SNAP) (3 mM) and diethylamine:NO NONOate (DNO) (3 mM) for 24 h or to authentic peroxynitrite (1 mM) for 1 h). Nitride/nitrate concentration in the medium and mitochondrial respiration were then measured as described below.
Measurement of mitochondrial respiration: Cell respiration was assessed by the mitochondrial-dependent reduction of 3-(4,5-dimethylthiazol-2-yl)-2,5-diphenyltetrazolium bromide (MTT) to formazan. Cells in 96-well plates were incubated at 37° C. with MTT (0.2 mg/ml) for 1 hour. Culture medium was removed by aspiration and the cells were solubilized in DMSO (100 μl). The extent of reduction of MTT to formazan within cells was quantitated by the measurement of OD550. All measurements were corrected for the interference of MnTBAP at this wavelength.

xanthine oxidase = target: T1, xanthine oxidase (Bos taurus, UniProt P80457); experiment: Inhibition of xanthine oxidase; assay type: biochemical; conditions: for Ki: pH 10, 25° C., 1 nM xanthine oxidase
T1 construct: purchased Boehringer Mannheim
Description: In a first study, assays were performed in a 1 ml quartz cuvette containing 50 mM carbonate buffer, pH 10, 0.1 mM EDTA, 1 nM xanthine oxidase (Boehringer Mannheim) at 25° C. Xanthine oxidase activity was measured spectrophotometrically by following the […] over time at 295 nm. Four concentrations of xanthine (25, 50, 250, 500 μM) and 2 concentrations of MnTBAP (5, 10 μM) were used. Two inhibition constants were then derived from the curve's intercepts (Kii=5.5 μM) and slopes (Kis=15 μM).

J774 macrophages [2] = experiment: Nitrite/nitrate production in J774 macrophages; assay type: cell-based; conditions: for inhibition of LPS-induced nitrite/nitrate accumulation: LPS 10 μg/ml; for inhibition of nitrite/nitrate accumulation: LPS and IFN
Description: as §1
Measurement of nitrite/nitrate production: Nitride/nitrate production, an indicator of NO synthesis, was measured in the supernatant. First, nitrate in the culture medium was reduced to nitrite by incubation with nitrate reductase (670 mU/ml) and NADPH (160 μM) at room temperature for 2 h. After 2 h, nitrite concentration in the samples were measured by the Griess reaction, by adding 100 μl of Griess reagent (1% sulfanilamide and 0.1% naphthylethylenediamide in 5% phosphoric acid) to 100 μl samples of conditioned medium. The optical density at 550 nm (OD550) was measured using a Spectramax 250 microplate reader (Molecular Devices, Sunnyvale, Calif.) Nitrate concentrations were calculated by comparison with OD550 of standard solutions of sodium nitrate prepared in culture medium. All measurements were corrected for the interference of MnTBAP at this wavelength.

T1 sequence (P80457 whole entry): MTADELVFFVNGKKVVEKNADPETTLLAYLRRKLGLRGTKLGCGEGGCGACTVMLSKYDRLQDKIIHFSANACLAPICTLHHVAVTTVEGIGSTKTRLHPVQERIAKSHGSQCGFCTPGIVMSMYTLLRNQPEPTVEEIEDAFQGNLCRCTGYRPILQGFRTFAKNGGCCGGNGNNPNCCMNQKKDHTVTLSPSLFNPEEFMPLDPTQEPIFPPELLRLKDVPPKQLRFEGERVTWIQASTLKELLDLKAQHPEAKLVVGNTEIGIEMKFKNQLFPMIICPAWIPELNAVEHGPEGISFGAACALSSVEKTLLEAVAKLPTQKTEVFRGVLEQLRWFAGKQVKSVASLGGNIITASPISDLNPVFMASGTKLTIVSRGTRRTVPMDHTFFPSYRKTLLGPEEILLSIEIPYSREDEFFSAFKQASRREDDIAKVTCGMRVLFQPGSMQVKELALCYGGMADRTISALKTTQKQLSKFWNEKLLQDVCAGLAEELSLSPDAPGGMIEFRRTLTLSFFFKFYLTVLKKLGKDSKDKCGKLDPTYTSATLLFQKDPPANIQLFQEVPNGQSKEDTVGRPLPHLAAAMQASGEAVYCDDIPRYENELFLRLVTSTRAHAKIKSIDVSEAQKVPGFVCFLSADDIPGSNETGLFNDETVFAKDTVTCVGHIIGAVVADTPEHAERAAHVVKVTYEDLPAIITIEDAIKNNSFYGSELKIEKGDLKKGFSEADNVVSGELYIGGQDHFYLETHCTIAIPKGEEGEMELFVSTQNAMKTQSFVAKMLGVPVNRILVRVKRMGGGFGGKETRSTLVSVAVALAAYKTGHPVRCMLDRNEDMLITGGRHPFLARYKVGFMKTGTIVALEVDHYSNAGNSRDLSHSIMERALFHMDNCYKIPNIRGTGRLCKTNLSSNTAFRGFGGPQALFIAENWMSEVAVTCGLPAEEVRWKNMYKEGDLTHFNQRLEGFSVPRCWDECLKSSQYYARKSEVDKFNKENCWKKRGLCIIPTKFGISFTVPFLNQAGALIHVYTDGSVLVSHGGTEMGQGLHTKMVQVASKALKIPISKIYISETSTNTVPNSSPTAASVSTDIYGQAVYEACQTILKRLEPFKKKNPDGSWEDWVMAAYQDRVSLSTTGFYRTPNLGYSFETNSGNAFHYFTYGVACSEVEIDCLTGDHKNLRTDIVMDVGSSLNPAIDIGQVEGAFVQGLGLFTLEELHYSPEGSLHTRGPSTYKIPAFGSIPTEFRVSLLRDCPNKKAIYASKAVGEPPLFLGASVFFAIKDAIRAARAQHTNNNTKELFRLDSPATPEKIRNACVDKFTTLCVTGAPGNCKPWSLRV

Mn(III) tetrakis (4-benzoic acid)porphyrin [MnTBAP]
PQ^++-, NMDA- and KA-mediated cell death (LDH release) (rat cortical cells; 200 μM MnTBAP, 18 hr): markedly inhibited
shift of concentration-response curve for NMDA (LDH) (rat cortical cells; 200 μM MnTBAP, 18 hr): complete protection at low concentrations of NMDA
reduction of LDH release (rat cortical cells; 200 μM added 30 min. after 15 min. 100 μM NMDA): 30%
reduction of LDH release (rat cortical cells; 200 μM added 60 min. after 15 min. 100 μM NMDA): 25%
reduction of LDH release / protective effect (rat cortical cells; added 15 min. after 15 min. 100 μM NMDA, 200 μM MnTBAP, 10 μM MK801): 38%
reduction of LDH release (rat cortical cells; condition "pre": 15 min. prior to and during 15 min. 100 μM NMDA, measured 18 hr. later): 25%
reduction of LDH release (rat cortical cells; condition "pre+post", 100 μM NMDA 15 min.): 51%
suppression of mitochondrial respiration by peroxynitrite (J774 macrophages [1]; 1 mM peroxynitrite, 1 h): partially and dose dependently prevented
immunostimulation-induced suppression of mitochondrial respiration (J774 macrophages [1]; LPS-treated and LPS and IFN-treated cells, 24 h): dose-dependent, partial restoration
suppression of mitochondrial respiration by NO donors SNAP and DNO (J774 macrophages [1]; SNAP, DNO 3 mM, 24 h): partially and dose dependently prevented
manner of inhibition of xanthine oxidase (xanthine oxidase): non-competitive
Ki (xanthine oxidase; read-out: Kii (inhibition constant from intercepts)): 5.5 µM
Ki (xanthine oxidase; read-out: Kis (inhibition constant from slopes)): 15 µM
nitrite/nitrate formation in the presence of L-NMA (J774 macrophages [2]): no additional effect
inhibition of LPS-induced nitrite/nitrate accumulation (J774 macrophages [2]; 100 μM): 63%
inhibition of nitrite/nitrate accumulation (J774 macrophages [2]; 100 μM): 25%
nitrite/nitrate accumulation in response to DNO (J774 macrophages [2]; 300 μM): slight inhibition
nitrite/nitrate accumulation in response to SNAP (J774 macrophages [2]; 300 μM): did not inhibit
inhibition of LPS-induced nitrite/nitrate accumulation (J774 macrophages [2]; 300 μM): 86%
inhibition of nitrite/nitrate accumulation (J774 macrophages [2]; 300 μM): 61%
change of inhibition of nitrite/nitrate accumulation when applied 6 h after LPS (J774 macrophages [2]; LPS-stimulated macrophages): more than 50%
